The values that follow come from patent US20180303086A1, “An Antimicrobial Composition” (Conopco, Inc., d/b/a UNILEVER, priority 2015, published 2018).

SMILES strings stand for the structures.

The nature of the data set: Solubility product and silver ion solubility of silver compounds in water at 25° C. Particulars: calculated from Ksp, [Ag+]=(Ksp·x)^(1/(x+1)). The format is physicochemical. The text has this: More particularly, silver ion solubility [Ag+], a value given in mol/L may be calculated using the formula: […]

Turning to `[Cl][Ag]` [Silver chloride], the “Silver Ion Solubility [Ag+]” value is 13 µM.
